Test results from patent US5449684A (priority 1993, dated 1995).
In brackets after ≈: the same amount, converted by molar mass.

Key:
Assay type in all cases: cell-based
[1] = test system: mouse leukemia P-388; assay: in vitro antitumour activity in cell cultures of mouse leukemia P-388; conditions: P388, P-388 cell culture
Procedure: (§1) The antitumour activities of Mycaperoxide A and Mycaperoxide B have been determined "in vitro" in cell cultures of mouse leukemia P-388, human lung carcinoma A-549 and human colon carcinoma HT-29. The procedure was carried out using the method described by Raymond J. Bergeron et al. Biochem Bioph. Res. Comm. 1984, 121(3), 848-854 and by Alan C Shroeder et al. J. Med. Chem. 1981, 24 1078-1083.

[2] = test system: human lung carcinoma A-549; assay: in vitro antitumour activity in cell cultures of human lung carcinoma A-549; conditions: A549, A-549 cell culture
Procedure: as §1

[3] = test system: human colon carcinoma HT-29; assay: in vitro antitumour activity in cell cultures of human colon carcinoma HT-29; conditions: HT-29 cell culture
Procedure: as §1

[4] = test system: VSV (Vesicular stomatitis virus); assay: microbe, parasite or virus in culture; conditions: read-out: IC50 VSV

| Structure (SMILES) | IC50 [1] [µg/mL] | IC50 [2] [µg/mL] | IC50 [3] [µg/mL] | IC50 [4] [µg/mL] |
| --- | --- | --- | --- | --- |
| CC(C(=O)O)C1CCC(C)(CCC2(O)C(C)CCC3C(C)(C)CCCC32C)OO1 (centres unmarked) [Mycaperoxide B, mycaperoxide B] | 1 (≈ 2.44 µM) | 1 (≈ 2.44 µM) | 1 (≈ 2.44 µM) | 4 (≈ 9.74 µM) |
| CC(C(=O)O)C1CCC(C)(CCC2(C)C(C)CCC3C(C)(C)CCCC32O)OO1 (centres unmarked) [Mycaperoxide A, mycaperoxide A] | 0.5 (≈ 1.22 µM) | 0.5 (≈ 1.22 µM) | 0.5 (≈ 1.22 µM) | 2 (≈ 4.87 µM) |
